Measured values published in ChEMBL document CHEMBL1125139, “Antitumor agents. 113. New 4 beta-arylamino derivatives of 4'-O-demethylepipodophyllotoxin and related compounds as potent inhibitors of human DNA topoisomerase II” (1990).

Columns and labels:
[1] = Concentration for 50% reduction in cell number after 3-day incubation; assay type: functional; settings: Homo sapiens, 72 h; read-out: ID50 (the source's name)
Nucleic Acid = assay: Inhibition of cellular protein-DNA complex formation at 10 uM; assay type: functional; settings: Homo sapiens
[2] = target: DNA topoisomerase II (Homo sapiens) (UniProt P11388+Q02880); assay: Inhibitory activity against human DNA topoisomerase II; assay type: protein assay

| SMILES | IC50 [1] [µM] | Formation (Nucleic Acid) [%] | ID50 [2] [µM] |
| --- | --- | --- | --- |
| COc1cc([C@@H]2c3cc4c(cc3[C@@H](Nc3cccc(C#N)c3)[C@H]3COC(=O)[C@H]23)OCO4)cc(OC)c1O | 0.69 | 137 | 25 |
| COc1cc([C@@H]2c3cc4c(cc3[C@@H](NCCO)[C@H]3COC(=O)[C@H]23)OCO4)cc(OC)c1O | 1.6 | 121 |  |
| COc1cc([C@@H]2c3cc4c(cc3[C@@H](Nc3cc([N+](=O)[O-])ccc3O)[C@H]3COC(=O)[C@H]23)OCO4)cc(OC)c1O | 1 | 15 | > 100 |
| COc1cc([C@@H]2c3cc4c(cc3[C@@H](Nc3ccc(N5CCOCC5)cc3)[C@H]3COC(=O)[C@H]23)OCO4)cc(OC)c1O | 0.66 | 140 | 10 |
| COC(=O)c1ccc(N[C@@H]2c3cc4c(cc3[C@@H](c3cc(OC)c(O)c(OC)c3)[C@H]3C(=O)OC[C@@H]32)OCO4)cc1O | 5.8 | 129 | 50 |
| COc1cc([C@@H]2c3cc4c(cc3[C@@H](Nc3cccc([N+](=O)[O-])c3)[C@H]3COC(=O)[C@H]23)OCO4)cc(OC)c1O | 1 | 230 | 50 |
| COc1cc([C@@H]2c3cc4c(cc3[C@@H](Nc3cc(OC)c(OC)c(OC)c3)[C@H]3COC(=O)[C@H]23)OCO4)cc(OC)c1O | 0.63 | 47 | > 100 |
| COc1cc([C@@H]2c3cc4c(cc3[C@@H](Oc3ccc(O)cc3)[C@H]3COC(=O)[C@H]23)OCO4)cc(OC)c1O | < 1 | 34 | 50 |
| COc1cc([C@@H]2c3cc4c(cc3[C@@H](Nc3ccc([N+](=O)[O-])cc3)[C@H]3COC(=O)[C@H]23)OCO4)cc(OC)c1O | 0.49 | 323 | 10 |
| COc1ccc(N[C@@H]2c3cc4c(cc3[C@@H](c3cc(OC)c(O)c(OC)c3)[C@H]3C(=O)OC[C@@H]32)OCO4)cc1OC | < 1 | 180 | 25 |
| COc1cc([C@@H]2c3cc4c(cc3[C@@H](Nc3ccc5c(c3)OCCO5)[C@H]3COC(=O)[C@H]23)OCO4)cc(OC)c1O | 0.68 | 279 | 10 |
| COc1cc([C@@H]2c3cc4c(cc3[C@@H](Nc3cc(C(F)(F)F)cc(C(F)(F)F)c3)[C@H]3COC(=O)[C@H]23)OCO4)cc(OC)c1O | 3.4 | 21 | > 100 |
| COc1cc([C@@H]2c3cc4c(cc3[C@@H](Nc3cccnc3)[C@H]3COC(=O)[C@H]23)OCO4)cc(OC)c1O | 0.24 | 148 | 50 |
| CCOC(=O)c1ccc(N[C@@H]2c3cc4c(cc3[C@@H](c3cc(OC)c(O)c(OC)c3)[C@H]3C(=O)OC[C@@H]32)OCO4)cc1 | 0.84 | 207 | 5 |
| COC(=O)c1cccc(N[C@@H]2c3cc4c(cc3[C@@H](c3cc(OC)c(O)c(OC)c3)[C@H]3C(=O)OC[C@@H]32)OCO4)c1 | 2.7 | 249 | 50 |
| COc1cc([C@@H]2c3cc4c(cc3[C@@H](Nc3ccccc3)[C@H]3COC(=O)[C@H]23)OCO4)cc(OC)c1O | 0.71 | 243 | 25 |
| COc1cc([C@@H]2c3cc4c(cc3[C@@H](Nc3ccc(C#N)cc3)[C@H]3COC(=O)[C@H]23)OCO4)cc(OC)c1O | 0.64 | 211 | 10 |
| COC(=O)c1cc(N[C@@H]2c3cc4c(cc3[C@@H](c3cc(OC)c(O)c(OC)c3)[C@H]3C(=O)OC[C@@H]32)OCO4)cc(C(=O)OC)c1 | < 1 | 50 | 25 |

| SMILES | IC50 [1] [µM] | Formation (Nucleic Acid) [%] | ID50 [2] [µM] |
| --- | --- | --- | --- |
| COc1cc([C@@H]2c3cc4c(cc3[C@@H](Nc3cccc(C(C)=O)c3)[C@H]3COC(=O)[C@H]23)OCO4)cc(OC)c1O | 1.7 | 150 | 50 |
| COc1cc([C@@H]2c3cc4c(cc3[C@@H](Nc3cnc5ccccc5c3)[C@H]3COC(=O)[C@H]23)OCO4)cc(OC)c1O | < 1 | 123 | 50 |
| COc1cc([C@@H]2c3cc4c(cc3[C@@H](Nc3ccc(N)cc3)[C@H]3COC(=O)[C@H]23)OCO4)cc(OC)c1O | 0.8 | 330 | 5 |
| COc1cc([C@@H]2c3cc4c(cc3[C@@H](Nc3ccc5c(c3)OCO5)[C@H]3COC(=O)[C@H]23)OCO4)cc(OC)c1O | < 1 | 164 | 50 |
| COc1cc([C@@H]2c3cc4c(cc3[C@@H](Nc3cccc(O)c3)[C@H]3COC(=O)[C@H]23)OCO4)cc(OC)c1O | 0.45 | 290 | 25 |
| COc1cc([C@@H]2c3cc4c(cc3[C@@H](Nc3cccc(N)c3)[C@H]3COC(=O)[C@H]23)OCO4)cc(OC)c1O | 4 | 140 | 25 |
| COc1cc([C@@H]2c3cc4c(cc3[C@@H](O[C@@H]3O[C@@H]5CO[C@@H](C)O[C@H]5[C@H](O)[C@H]3O)[C@H]3COC(=O)[C@H]23)OCO4)cc(OC)c1O [ETOPOSIDE] | 0.2 | 100 |  |
| COc1cc([C@@H]2c3cc4c(cc3[C@@H](Nc3ccc(F)cc3)[C@H]3COC(=O)[C@H]23)OCO4)cc(OC)c1O | 0.24 | 213 | 5 |
| COc1cc([C@@H]2c3cc4c(cc3[C@@H](Oc3ccc(F)cc3)[C@H]3COC(=O)[C@H]23)OCO4)cc(OC)c1O | 0.5 | 57 | > 100 |
| COc1cc([C@@H]2c3cc4c(cc3[C@@H](Nc3ccccn3)[C@H]3COC(=O)[C@H]23)OCO4)cc(OC)c1O | 0.71 | 97 | 50 |
| COC(=O)c1cc(N[C@@H]2c3cc4c(cc3[C@@H](c3cc(OC)c(O)c(OC)c3)[C@H]3C(=O)OC[C@@H]32)OCO4)ccc1O | 1 | 83 | 50 |
| COc1cccc(N[C@@H]2c3cc4c(cc3[C@@H](c3cc(OC)c(O)c(OC)c3)[C@H]3C(=O)OC[C@@H]32)OCO4)c1 | 3.8 | 104 | 25 |
| CCOC(=O)c1ccccc1N[C@@H]1c2cc3c(cc2[C@@H](c2cc(OC)c(O)c(OC)c2)[C@H]2C(=O)OC[C@@H]21)OCO3 | 1 | 4 | > 100 |
| COc1cc([C@@H]2c3cc4c(cc3[C@@H](Nc3cccc(CO)c3)[C@H]3COC(=O)[C@H]23)OCO4)cc(OC)c1O | < 1 | 235 | 25 |
| COc1cc([C@@H]2c3cc4c(cc3[C@@H](Nc3cc(N)ccc3O)[C@H]3COC(=O)[C@H]23)OCO4)cc(OC)c1O | 3.3 | 11 | > 100 |
| COc1cc([C@@H]2c3cc4c(cc3[C@@H](Sc3ccc(O)cc3)[C@H]3COC(=O)[C@H]23)OCO4)cc(OC)c1O | < 1 | 10 | > 100 |
| COc1cc([C@@H]2c3cc4c(cc3[C@@H](Nc3ccc(Oc5ccccc5)cc3)[C@H]3COC(=O)[C@H]23)OCO4)cc(OC)c1O | 1 | 97 | 25 |
